Test results reported in EP3381907A1, “SYMMETRICAL 2-AMINOPHENYL-BENZAZOLYL-5-ACETATE COMPOUNDS AND THEIR USE AS ANTI-HEPARANASE” (Leadiant Biosciences SA, priority 2017, dated 2018).

Key:
heparanase = target: T1, heparanase (Homo sapiens, UniProt Q9Y251); assay: AGA*IA assay: colorimetric fondaparinux cleavage assay for heparanase inhibition (WST-1); format: biochemical; details: 2.5 nM heparanase, 100 µM fondaparinux, pH 5.0, 3 h at 37°C; class symbols
T1 sequence (Q9Y251 158-543 limits assumed): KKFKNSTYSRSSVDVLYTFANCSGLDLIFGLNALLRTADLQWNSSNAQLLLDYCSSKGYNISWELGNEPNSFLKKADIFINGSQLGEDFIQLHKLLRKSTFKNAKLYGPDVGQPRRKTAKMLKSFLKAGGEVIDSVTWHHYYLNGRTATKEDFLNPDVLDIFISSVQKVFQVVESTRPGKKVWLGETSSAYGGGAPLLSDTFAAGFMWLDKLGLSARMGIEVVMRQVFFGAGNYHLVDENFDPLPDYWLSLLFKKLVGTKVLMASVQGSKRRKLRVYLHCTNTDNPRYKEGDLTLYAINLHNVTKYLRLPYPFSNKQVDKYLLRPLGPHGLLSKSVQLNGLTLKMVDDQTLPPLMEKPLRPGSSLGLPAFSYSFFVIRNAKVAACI
T1 sequence (Q9Y251 36-109 limits assumed): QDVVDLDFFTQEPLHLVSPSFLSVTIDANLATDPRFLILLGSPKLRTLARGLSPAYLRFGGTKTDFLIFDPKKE
Method: All compounds were tested in a simple, accurate and robust microplate assay based on the cleavage of the synthetic heparin fragment, the pentasaccharide Fondaparinux (AGA*IA). This assay was originally developed by Hammond and coworkers [Hammond E, Li CP, Ferro V. Development of a colorimetric assay for heparanase activity suitable for kinetic analysis and inhibitor screening. Anal. Biochem. 396(1), 112-116 (2010)], where Fondaparinux corresponds to the methyl glycoside of the antithrombin III (ATIII)-activating pentasaccharide sequence of heparin. Fondaparinux is cleaved by heparanase to generate a reducing disaccharide, which can be quantitatively measured via a colorimetric or a fluorescence assay, the last by the fluorescent sensor polymer-H [Schiemann S, Lühn S, Alban S. Development of both colorimetric and fluorescence heparinase activity assays using fondaparinux as substrate. Anal. Biochem. 427(1), 82-89 (2012)].
The assay measures the appearance of the disaccharide product of heparanase-catalyzed fondaparinux cleavage colorimetrically using the tetrazolium salt WST-1. Assay was essentially performed as described with minor modifications. Briefly, NUNC ELISA 96-well plates were pre-treated with a solution of 4% BSA (bovin serum albumin) in phosphate-buffered saline containing 0.05% Tween 20 (PBST), for 2 h at 37°C, then washed three times with PBST, dried by tapping on paper towel and stored at -20°C. Before use, once again, the plates were washed with PBST.
Assay was carried out with 100 µl/well of assay solution containing 40 mM sodium acetate buffer (pH 5.0), 100 µM fondaparinux, 2.5 nM heparanase and serial dilutions of test compounds (tested in triplicate). Plates were sealed with adhesive tape and incubated, in the dark, for 3 h at 37°C, followed by development with 1.69 mM of the tetrazolium salt WST-1 solution in 0.1 M NaOH, for 1 h at 60°C. Then, the absorbance at 560 nm was measured through a microplate reader (Victor 3, Perkin Elmer).
Finally, the measurements were corrected by subtracting both the reagent background and the inner absorbance value of test compound.

[1] = test system: U2OS (human osteosarcoma); assay: SRB Cell Cytotoxicity Assay, U2OS; format: cell-based; details: 72h treatment, read-out: Concentration (µM) of test compounds at which the cell growth is inhibited by 50 %. U2OS
Source text: (§1) SRB Cell Cytotoxicity Assay is an assay based upon the quantitative staining of cellular proteins by sulforhodamine B (SRB). This assay can be used for high-throughput drug screening (Vichai & Kirkitara, Nature Protocol. 2006, 1, 112). Sulforhodamine B is an anionic aminoxanthene dye that forms an electrostatic complex with the basic amino acid residues of proteins under moderately acid conditions, which provides a sensitive linear response.
(§2) To assess a putative antiproliferative activity of the selected compounds, HT1080 (human fibrosarcoma), U87MG (human glioblastoma astrocytoma) and U2OS (human osteosarcoma) cell lines were treated for 72h, in triplicate, with increasing concentrations of heparanase inhibitors. Inhibition of cell proliferation was then measured by the classical colorimetric SRB Cell Cytotoxicity assay. Absorbance was measured by spectrophotometer at a wavelength of 510 nm and cell proliferation was determined as percent with respect to control cells (cells treated with the vehicle alone). EC50 values were then determined by GraphPad Prism.

[2] = test system: U87MG (human glioblastoma astrocytoma); assay: SRB Cell Cytotoxicity Assay, U87MG; format: cell-based; details: U-87 MG, 72h treatment, read-out: Concentration (µM) of test compounds at which the cell growth is inhibited by 50 %. U87MG
Source text: as §1, §2

[3] = test system: HT1080 (human fibrosarcoma); assay: SRB Cell Cytotoxicity Assay, HT1080; format: cell-based; details: HT-1080, HT1080, 72h treatment, read-out: Concentration (µM) of test compounds at which the cell growth is inhibited by 50 %. HT1080
Source text: as §1, §2

Compound	IC50 (heparanase)	EC50 [1]	EC50 [2]	EC50 [3]
O=C(O)CNC(=O)Cc1ccc2[nH]c(-c3ccc(NC(=O)Nc4ccc(-c5nc6cc(CC(=O)NCC(=O)O)ccc6[nH]5)cc4F)c(F)c3)nc2c1 [Compound 7, 2,2'-((2,2'-(((carbonylbis(azanediyl))bis(3-fluoro-4,1-phenylene))bis(1H-benzo[d]imidazole-2,5-diyl))bis(acetyl))bis(azanediyl))diacetic acid]	1 to 20 µM	–	–	–
O=C(Cc1ccc2[nH]c(-c3ccc(NC(=O)Nc4ccc(-c5nc6cc(CC(=O)N[C@@H](Cc7ccccc7)C(=O)O)ccc6[nH]5)cc4F)c(F)c3)nc2c1)N[C@@H](Cc1ccccc1)C(=O)O [Compound 8, (2S,2'S)-2,2'-((2,2'-(((Carbonylbis(azanediyl))bis(3-fluoro-4,1-phenylene))bis(1H-benzo[d]imidazole-2,5-diyl))bis(acetyl))bis(azanediyl))bis(3-phenylpropanoic acid)]	0.5 to 0.99 µM	–	–	–
O=C(Cc1ccc2[nH]c(-c3ccc(NC(=O)Nc4ccc(-c5nc6cc(CC(=O)NCB(O)O)ccc6[nH]5)cc4F)c(F)c3)nc2c1)NCB(O)O [Compound 9, (((2,2'-(((Carbonylbis(azanediyl))bis(3-fluoro-4,1-phenylene))bis(1H-benzo[d]imidazole-2,5-diyl))bis(acetyl))bis(azanediyl))bis(methylene))diboronic acid]	1 to 20 µM	–	–	–
O=C(O)Cc1ccc2oc(-c3ccc(NC(=O)Nc4ccc(-c5nc6cc(CC(=O)O)ccc6o5)cc4)cc3)nc2c1 [Compound 19, 2,2'-(((Carbonylbis(azanediyl))bis(4,1-phenylene))bis(benzo[d]oxazole-2,5-diyl))diacetic acid]	1 to 20 µM	> 10 µM	> 10 µM	> 10 µM
O=C(O)Cc1ccc2oc(-c3ccc(NC(=S)Nc4ccc(-c5nc6cc(CC(=O)O)ccc6o5)cc4)cc3)nc2c1 [Compound 33, 2,2'-(((thiocarbonylbis(azanediyl))bis(4,1-phenylene))bis(benzo[d]oxazole-2,5-diyl))diacetic acid]	1 to 20 µM	–	–	–
CC(C)C[C@H](NC(=O)Cc1ccc2oc(-c3ccc(NC(=O)Nc4ccc(-c5nc6cc(CC(=O)N[C@@H](CC(C)C)B(O)O)ccc6o5)cc4F)c(F)c3)nc2c1)B(O)O [Compound 31, (1R,1'R)-(((2,2'-(((Carbonylbis(azanediyl))bis(3-fluoro-4,1-phenylene))bis(benzo[d]oxazole-2,5-diyl))bis(acetyl))bis(azanediyl))bis(3-methylbutane-1,1-diyl))diboronic acid]	1 to 20 µM	–	–	–
O=C(O)Cc1ccc2[nH]c(-c3ccc(NC(=O)Nc4ccc(-c5nc6cc(CC(=O)O)ccc6[nH]5)cc4F)c(F)c3)nc2c1 [Compound 4, 2,2'-(((Carbonylbis(azanediyl))bis(3-fluoro-4,1-phenylene))bis(1H-benzo[d]imidazole-2,5-diyl))diacetic acid]	0.5 to 0.99 µM	–	–	–
O=C(O)Cc1ccc2oc(-c3ccc(NC(=S)Nc4ccc(-c5nc6cc(CC(=O)O)ccc6o5)cc4F)c(F)c3)nc2c1 [Compound 36, 2,2'-(((Thiocarbonylbis(azanediyl))bis(3-fluoro-4,1-phenylene))bis(benzo[d]oxazole-2,5-diyl))diacetic acid]	1 to 20 µM	–	–	–
CC(C)CCNC(=O)Cc1ccc2oc(-c3ccc(NC(=O)Nc4ccc(-c5nc6cc(CC(=O)NCCC(C)C)ccc6o5)cc4F)c(F)c3)nc2c1 [Compound 28, 2,2'-(((Carbonylbis(azanediyl))bis(3-fluoro-4,1-phenylene))bis(benzo[d]oxazole-2,5-diyl))bis(N-isopentylacetamide)]	1 to 20 µM	–	–	–
O=C(Cc1ccc2oc(-c3ccc(NC(=O)Nc4ccc(-c5nc6cc(CC(=O)N[C@@H](Cc7ccccc7)C(=O)O)ccc6o5)cc4F)c(F)c3)nc2c1)N[C@@H](Cc1ccccc1)C(=O)O [Compound 26, (2S,2'S)-2,2'-((2,2'-(((Carbonylbis(azanediyl))bis(3-fluoro-4,1-phenylene))bis(benzo[d]oxazole-2,5-diyl))bis(acetyl))bis(azanediyl))bis(3-phenylpropanoic acid)]	0.5 to 0.99 µM	> 10 µM	> 10 µM	> 10 µM
O=C(O)Cc1ccc2[nH]c(-c3ccc(NC(=S)Nc4ccc(-c5nc6cc(CC(=O)O)ccc6[nH]5)cc4F)c(F)c3)nc2c1 [Compound 12, 2,2'-(((Thiocarbonylbis(azanediyl))bis(3-fluoro-4,1-phenylene))bis(1H-benzo[d]imidazole-2,5-diyl))diacetic acid]	0.5 to 0.99 µM	–	–	–
N=C(Nc1ccc(-c2nc3cc(CC(=O)O)ccc3o2)cc1)Nc1ccc(-c2nc3cc(CC(=O)O)ccc3o2)cc1 [Compound 40, 2,2'-((((Iminomethylene)bis(azanediyl))bis(4,1-phenylene))bis(benzo[d]oxazole-2,5-diyl))diacetic acid]	1 to 20 µM	–	–	–
O=C(O)CNC(=O)Cc1ccc2oc(-c3ccc(NC(=S)Nc4ccc(-c5nc6cc(CC(=O)NCC(=O)O)ccc6o5)cc4F)c(F)c3)nc2c1 [Compound 38, 2,2'-((2,2'-(((Thiocarbonylbis(azanediyl))bis(3-fluoro-4,1-phenylene))bis(benzo[d]oxazole-2,5-diyl))bis(acetyl))bis(azanediyl))diacetic acid]	0.05 to 0.49 µM	> 10 µM	> 10 µM	> 10 µM
